Data from US8828997B2, “2,3-dihydro-1H-imidazo(1,2-a)pyrimidin-5-one derivatives, preparation thereof, and pharmaceutical use thereof” (Sanofi, priority 2009, dated 2014).

Tested on: AKT protein phosphorylated on serine 473 (P-AKT-S473) in PC3 human prostate carcinoma cells
Experiment: pAKT expression in PC3 human prostate carcinoma cells measured by MSD Multi-spot Biomarker detection (test B)
Format: cell-based
Conditions: Homo sapiens, PC-3, P-AKT-S473, PC3 cells, MSD sandwich immunoassay, 1 to 2 h incubation, absolute IC50
Outline: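 PC3 cells exposed to compound for 1-2 h at 37 °C (0.1% DMSO; up to 10 μM), lysed, and P-AKT-S473 quantified by electrochemiluminescent sandwich immunoassay. Percent inhibition normalised to DMSO wells with background subtracted. Absolute IC50 from dose-response curves, averaged over 2 experiments.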

- IC50: 3 nM
SMILES: COc1ccc(CCN2c3nc(N4CCOCC4)cc(=O)n3C[C@@]2(C)C(F)(F)F)cc1 [Example 1, (S)-1-[2-(4-Methoxyphenyl)ethyl]-2-methyl-7-morpholin-4-yl-2-trifluoromethyl-2,3-dihydro-1H-imidazo[1,2-a]pyrimidin-5-one]
